Assay results from US20040063660A1, “Diasteriomers of S-adenosyl-l-methionine and uses thereof” (priority 2000, published 2004).

Key:
primary fibromyalgia = settings: oral, short-term trial; cited from earlier work
[1] = tested on: total parenteral nutrition-induced cholestasis; settings: rat; cited from earlier work
Alzheimer's disease = settings: preliminary study; cited from earlier work
muscarinic receptors = settings: rats treated chronically; cited from earlier work
brain oxidative status = settings: chronically administered, rats; cited from earlier work
[2] = tested on: peripheral occlusive arterial disease; settings: patients with peripheral occlusive arterial disease; cited from earlier work
human erythrocytes = settings: incubated in vitro with human erythrocytes; cited from earlier work
memory = settings: treated vs age matched untreated animals, old and young; cited from earlier work
[3] = tested on: alcoholic liver cirrhosis; settings: oral, vs placebo treated group; cited from earlier work
liver glutathione = settings: oral, patients with and without liver disease; cited from earlier work
migraines = settings: human, in vivo; cited from earlier work
intrahepatic cholestasis = settings: oral, intrahepatic cholestasis patients; cited from earlier work
[4] = tested on: tumor necrosis factor alpha; settings: cited from earlier work
[5] = tested on: S-adenosyl-l-methionine-dependent methyltransferases; settings: cited from earlier work
methyltransferases = settings: other methyltransferases; cited from earlier work
[6] = tested on: patients with major depressive episode (DSM-III); assay: open, non-blind study of depression, Hamilton Rating Scale for Depression; format: in vivo, human; settings: 400 mg twice daily, 14 days
Experimental: (S,S)-S-adenosyl-l-methionine p-toluene sulfonate 400 mg was administered twice daily in an open, non-blind study of 10 volunteers who gave informed consent. All patients had normal results on pre-study medical examinations, including laboratory examinations. Patients received 400 mg of (S,S)-S-adenosyl-l-methionine p-toluene sulfonate in an enteric-coated tablet form twice daily for 14 days or until remission of depression symptoms. The 10 patients satisfied the DSM-III criteria for a major depressive episode. Patients' symptoms were monitored daily using the Hamilton Rating Scale for Depression. 9 patients completed the study. […] One patient had no change at all.

[7] = suggested; control of morning sickness during pregnancy; cited from earlier work
beta-adrenergic = settings: L-form vs D-enantiomer; cited from earlier work
[8] = tested on: nucleolar 2-0-methyltransferase; settings: vs (R,S) diasteriomer; cited from earlier work
[9] = enteric-coated tablet, 9 patients completed

With C[S+](CC[C@H](N)C(=O)[O-])C[C@H]1O[C@@H](n2cnc3c(N)ncnc32)[C@H](O)[C@@H]1O (stereo partly drawn) [S-adenosyl-l-methionine] as the compound, how does the “improvement in primary fibromyalgia” value (primary fibromyalgia) read?
Its value is “significant improvement”.

What about the “cholestasis resulting from total parenteral nutrition” value [1] of the same compound?
Its value is “able to prevent cholestasis”.

And the “cognitive effect in patients with Alzheimer's disease” value (Alzheimer's disease)?
The value was “cognitive improvement”.

What about the “number of muscarinic receptors in the brain” value (muscarinic receptors) of the same compound?
The value was “increase the number of muscarinic receptors”.

And the “oxidative status in the brain” value (brain oxidative status)?
The value was “enhancing anti-oxidative defenses”.

And the blood viscosity [2]?
The blood viscosity was “reduce blood viscosity”.

And the “ATP within the erythrocyte” value (human erythrocytes)?
The value was “increases ATP within the cell”.

And the “performance in eight arm radical maze test versus untreated animals” value (memory)?
Its value is “out-perform”.

And the “overall mortality and/or progression to liver transplant” value [3]?
Its value is 12%.

And the liver glutathione levels (liver glutathione)?
Its liver glutathione levels is “increases in liver glutathione levels”.

What about the benefit in migraines (migraines) of the same compound?
Its benefit in migraines is “found to be of benefit”.

What about the “pruritus and biochemical markers of cholestasis” value (intrahepatic cholestasis) of the same compound?
The value was “improvements in both the pruritus as well as the biochemical markers of cholestasis”.

What about the “amount of tumor necrosis factor alpha secreted by cells” value [4] of the same compound?
The value was “decrease the amount”.

What about the “damage caused by tumor necrosis factor alpha” value [4] of the same compound?
The value was “attenuates the damage”.

For C[S@@+](CC[C@@H](N)C(=O)O)C[C@H]1O[C@@H](n2cnc3c(N)ncnc32)[C@H](O)[C@@H]1O [(R,S)-S-adenosyl-l-methionine], which “inhibition of enzyme-catalyzed transmethylation reactions” value [5] is on record?
Its value is “potent inhibitor”.

What about the “binding relative to (S,S)-S-adenosyl-l-methionine” value (methyltransferases) of the same compound?
Its value is “to the same extent”.

Which “side effects (reported, laboratory or physical examination)” value [6] does the source give for C[S@@+](CC[C@H](N)C(=O)O)C[C@H]1O[C@@H](n2cnc3c(N)ncnc32)[C@H](O)[C@@H]1O.Cc1ccc(S(=O)(=O)[O-])cc1 [(S,S)-S-adenosyl-l-methionine p-toluene sulfonate] here?
Its value is “No side effects were noted or reported”.

What about the “patients who completed the trial and improved (Hamilton Rating Scale for Depression)” value [6, 9] of the same compound?
The value was “Eight of the nine”.

And the “patients with no change” value [6, 9]?
The value was “One”.

For O=C1CCC(N2C(=O)c3ccccc3C2=O)C(=O)N1 (single isomer, unassigned) [L-enantiomer, thalidomide], which “safety and effect of thalidomide enantiomer in pregnancy” value [7] is on record?
The value was “potent teratogen”.

With CC(C)NCC(O)COc1cccc2ccccc12 (centres unmarked) [propranolol] as the compound, how does the “potency relative to the D-enantiomer” value (beta-adrenergic) read?
Its value is 100 times.

For O=C1CCC(N2C(=O)c3ccccc3C2=O)C(=O)N1 (single isomer, unassigned) [D-enantiomer of thalidomide, thalidomide], which “safety and effect of thalidomide enantiomer in pregnancy” value [7] is on record?
The value was “safe and effective sedative”.

Which “tightness of enzyme binding relative to (R,S)-S-adenosyl-l-methionine” value [8] does the source give for C[S@@+](CC[C@H](N)C(=O)O)C[C@H]1O[C@@H](n2cnc3c(N)ncnc32)[C@H](O)[C@@H]1O [(S,S)-S-adenosyl-l-methionine] here?
Its value is 10 fold.
